Source: US20140107109A1, “AMINO-DIHYDROTHIAZINE AND AMINO-DIOXIDO DIHYDROTHIAZINE COMPOUNDS AS BETA-SECRETASE ANTAGONISTS AND METHODS OF USE” (Amgen Inc., priority 2012, published 2014)
pIC50: −log10 of the molar value. Where two headings read alike, the source gives them in different places.

How the values were obtained:
Cathepsin D (Cat D) = target: T1, Cathepsin D (Cat D) (Homo sapiens, UniProt P07339); test: In vitro enzymatic Cathepsin D (Cat D) FRET assay; type: biochemical; conditions: read-out: CatD IC50
T1 construct: Recombinant Cat D was expressed in CHO cells; made in house; host or cells: CHO cells
In short: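 Recombinant Cat D expressed in CHO cells, used at 9 nM and pre-incubated one hour with serially diluted inhibitor in DMSO. Peptide substrate carries a fluorophore and quencher flanking the cleavage site; reaction stopped with Tris buffer raising pH to neutrality, then fluorescence read.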

[1] = target: Beta Secretase enzyme (BACE1) (Homo sapiens, UniProt P56817); test: In vitro enzymatic BACE FRET assay; type: biochemical; conditions: read-out: BACE1 FRET assay IC50
In short: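 BACE1 cleavage of a 50 nM fluorophore/quencher peptide FRET substrate ran for one hour in 0.05 M acetate pH 4.2, 10% DMSO, 100 uM genapol. Tris buffer raised pH to neutrality to stop the reaction before fluorescence was read (excitation 488 nm, […]).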

[2] = system: Aβ40 in conditioned medium of cells stably expressing Amyloid Precursor Protein (APP); test: In vitro BACE cell-based assay (HEK cell assay), Aβ40 sandwich ELISA; conditions: Homo sapiens, HEK293
In short: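 APP-stably expressing cells (40K/well, grown 24 h in DMEM/10% FBS) were treated 24 h with compounds in 10-point dose response starting at 100 μM or 10 μM, 0.1% DMSO final. Secreted Aβ40 was measured by sandwich ELISA (pAb40 capture, biotinylated 6E10 detection, europium time-resolved fluorescence); IC50 from percent inhibition.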

Chain of Beta Secretase enzyme (BACE1) (P56817 46-501): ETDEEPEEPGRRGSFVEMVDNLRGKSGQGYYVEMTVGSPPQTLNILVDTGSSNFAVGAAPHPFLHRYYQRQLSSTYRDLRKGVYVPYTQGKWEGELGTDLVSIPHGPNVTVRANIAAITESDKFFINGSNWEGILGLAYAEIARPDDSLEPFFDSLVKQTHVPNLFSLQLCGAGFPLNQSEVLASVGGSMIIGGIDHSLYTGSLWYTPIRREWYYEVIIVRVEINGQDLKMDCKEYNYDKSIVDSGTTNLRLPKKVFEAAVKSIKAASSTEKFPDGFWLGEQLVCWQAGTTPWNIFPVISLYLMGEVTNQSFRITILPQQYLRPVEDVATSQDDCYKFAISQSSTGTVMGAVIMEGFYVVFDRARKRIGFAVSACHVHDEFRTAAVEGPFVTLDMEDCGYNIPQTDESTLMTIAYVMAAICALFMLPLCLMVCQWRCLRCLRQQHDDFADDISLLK
T1 sequence (P07339 65-412, species assumed): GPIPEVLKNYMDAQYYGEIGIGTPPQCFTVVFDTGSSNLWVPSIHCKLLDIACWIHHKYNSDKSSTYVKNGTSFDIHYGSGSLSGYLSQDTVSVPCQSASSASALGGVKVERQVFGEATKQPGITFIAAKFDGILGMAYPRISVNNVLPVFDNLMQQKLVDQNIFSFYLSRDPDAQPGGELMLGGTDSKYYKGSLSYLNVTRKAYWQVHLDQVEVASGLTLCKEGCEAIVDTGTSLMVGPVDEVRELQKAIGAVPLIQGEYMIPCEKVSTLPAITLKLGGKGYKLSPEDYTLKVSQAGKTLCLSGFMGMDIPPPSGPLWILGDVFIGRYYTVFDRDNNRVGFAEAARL

Compound	pIC50 (Cathepsin D (Cat D))	pIC50 ([1]; average IC50, enzyme assay)	pIC50 ([2]; average IC50, HEK cell assay)	pIC50 ([2]; average IC50, cell assay)	pIC50 [1]	also measured
COc1ccc(C(=O)Nc2ccc(F)c([C@]3(C)CS(=O)(=O)[C@@](C)(F)C(N)=N3)c2)nc1 [Example 318, N-(3-((3R,6R)-5-amino-6-fluoro-3,6-dimethyl-1,1-dioxido-3,6-dihydro-2H-1,4-thiazin-3-yl)-4-fluorophenyl)-5-methoxy-2-pyridinecarboxamide]	< 3.40	8.74	7.16			
CCOc1cnc2c(Nc3ccc(F)c([C@]4(C)CS(=O)(=O)C(C)(C)C(N)=N4)c3)nccc2c1 [Example 422, N-(3-((3R)-5-amino-3,6,6-trimethyl-1,1-dioxido-3,6-dihydro-2H-1,4-thiazin-3-yl)-4-fluorophenyl)-3-ethoxy-1,7-naphthyridin-8-amine]	3.02	7.74		7.54		
COc1cc(Cl)cnc1C(=O)Nc1ccc(F)c([C@@]2(C)N=C(N)C3(CCC3)S(=O)(=O)[C@@H]2F)c1 [Example 139, N-(3-((6S,7R)-9-amino-6-fluoro-7-methyl-5,5-dioxido-5-thia-8-azaspiro[3.5]non-8-en-7-yl)-4-fluorophenyl)-5-chloro-3-methoxypicolinamide]	3.39				8.42	pIC50 [2]: 7.93
CC1(C)C(N)=N[C@](CF)(c2cc(NC(=O)c3ccc(C#N)cn3)ccc2F)CS1(=O)=O [Example 406, N-(3-((3S)-5-amino-3-(fluoromethyl)-6,6-dimethyl-1,1-dioxido-3,6-dihydro-2H-1,4-thiazin-3-yl)-4-fluorophenyl)-5-cyano-2-pyridinecarboxamide]	< 3.40				9.27	pIC50 [2]: 7.84
CC1(C)C(N)=N[C@](C)(c2cc(NC(=O)c3ccc(C(F)F)cn3)ccc2F)C(F)S1(=O)=O (stereo partly drawn) [Example 334, N-(3-((3R)-5-amino-2-fluoro-3,6,6-trimethyl-1,1-dioxido-3,6-dihydro-2H-1,4-thiazin-3-yl)-4-fluorophenyl)-5-(difluoromethyl)-2-pyridinecarboxamide]	3.51	8.62	8.26			
CC1(C)C(N)=N[C@](C)(c2cc(Nc3ncnc4cc(OCC5CC5)cnc34)ccc2F)CS1(=O)=O [Example 104, (R)-5-amino-3-(5-((7-(cyclopropylmethoxy)pyrido[3,2-d]pyrimidin-4-yl)amino)-2-fluorophenyl)-3,6,6-trimethyl-3,6-dihydro-2H-1,4-thiazine 1,1-dioxide]	3.45	8.81		8.28		
COCc1cc(Cl)cnc1C(=O)Nc1ccc(F)c([C@@]2(C)N=C(N)C(C)(C)S(=O)(=O)C2F)c1 (stereo partly drawn) [Example 335, N-(3-((3R)-5-amino-2-fluoro-3,6,6-trimethyl-1,1-dioxido-3,6-dihydro-2H-1,4-thiazin-3-yl)-4-fluorophenyl)-5-chloro-3-(methoxymethyl)-2-pyridinecarboxamide]	3.51	9.25	8.17			
COc1cnc2c(Nc3ccc(F)c([C@@]4(C)N=C(N)C5(CCC5)S(=O)(=O)C4F)c3)nccc2n1 (stereo partly drawn) [Example 232, N-(3-((7R)-9-amino-6-fluoro-7-methyl-5,5-dioxido-5-thia-8-azaspiro[3.5]non-8-en-7-yl)-4-fluorophenyl)-2-methoxypyrido[3,4-b]pyrazin-5-amine]	3.52	7.88		7.11		
CC1(C)C(N)=N[C@](CF)(c2cc(NC(=O)c3ccc(OC(F)F)cn3)ccc2F)CS1(=O)=O [Example 362, N-(3-((3S)-5-amino-3-(fluoromethyl)-6,6-dimethyl-1,1-dioxido-3,6-dihydro-2H-1,4-thiazin-3-yl)-4-fluorophenyl)-5-(difluoromethoxy)-2-pyridinecarboxamide]	3.52	9.52	8.46			
C=C(C)c1cc(Cl)cnc1C(=O)Nc1ccc(F)c([C@]2(CF)CS(=O)(=O)C(C)(C)C(N)=N2)c1 [Example 407, N-(3-((3S)-5-amino-3-(fluoromethyl)-6,6-dimethyl-1,1-dioxido-3,6-dihydro-2H-1,4-thiazin-3-yl)-4-fluorophenyl)-5-chloro-3-(1-methylethenyl)-2-pyridinecarboxamide]	3.36				8.45	pIC50 [2]: 7.24
CC1(C)C(N)=N[C@](C)(c2cc(Oc3nccc4ccsc34)ccc2F)CS1(=O)=O [Example 291, (5R)-5-(2-fluoro-5-(thieno[2,3-c]pyridin-7-yloxy)phenyl)-2,2,5-trimethyl-5,6-dihydro-2H-1,4-thiazin-3-amine 1,1-dioxide]	3.62	6.29		6.04		
COc1cnc(C(=O)Nc2ccc(F)c([C@]3(C)CS(=O)(=O)[C@@](C)(F)C(N)=N3)c2)cn1 [Example 30, N-(3-((3R,6R)-5-amino-6-fluoro-3,6-dimethyl-1,1-dioxido-3,6-dihydro-2H-1,4-thiazin-3-yl)-4-fluorophenyl)-5-methoxy-2-pyrazinecarboxamide]	< 3.40				8.51	pIC50 ([2]; Aβ40, 24 h incubation): 7.10
CCc1cccc(Oc2ccc(F)c([C@]3(C)CS(=O)(=O)C(C)(C)C(N)=N3)c2)c1 [Example 99, (R)-5-amino-3-(5-(3-ethylphenoxy)-2-fluorophenyl)-3,6,6-trimethyl-3,6-dihydro-2H-1,4-thiazine 1,1-dioxide]	4.06				5.84	pIC50 ([2]; Aβ40, 24 h incubation): 5.18
COc1ncc(NC(=O)c2ccc(Cl)cn2)cc1[C@]1(C)CS(=O)(=O)C(C)(C)C(N)=N1 [Example 170, (R)—N-(5-(5-amino-3,6,6-trimethyl-1,1-dioxido-3,6-dihydro-2H-1,4-thiazin-3-yl)-6-methoxypyridin-3-yl)-5-chloropicolinamide]	3.52	7.65		7.54		
C[C@@]1(c2cc(Br)cnc2F)CS(=O)(=O)C2(CC2)C(N)=N1 [Example 455, (6R)-6-(5-bromo-2-fluoro-3-pyridinyl)-6-methyl-4-thia-7-azaspiro[2.5]oct-7-en-8-amine 4,4-dioxide]	4.00					pIC50 ([1]; average IC50): 4.90; pIC50 ([2]; average IC50, HEK cells): < 4.81
C[C@]1(c2cc(NC(=O)c3ccc(Cl)cn3)ccc2F)N=C(N)C2(CCC2)S(=O)(=O)[C@@H]1F [Example 131, N-(3-((6S,7R)-9-amino-6-fluoro-7-methyl-5,5-dioxido-5-thia-8-azaspiro[3.5]non-8-en-7-yl)-4-fluorophenyl)-5-chloropicolinamide]	3.79				8.80	pIC50 [2]: 8.05

Continued, in another order:

pIC50 (Cathepsin D (Cat D))	pIC50 ([1]; average IC50, enzyme assay)	pIC50 ([2]; average IC50, HEK cell assay)	pIC50 ([2]; average IC50, cell assay)	pIC50 [1]	Compound	also measured
3.87	9.12	8.39			Cc1cc(OC(F)F)cnc1C(=O)Nc1ccc(F)c([C@@]2(C)N=C(N)C(C)(C)S(=O)(=O)C2F)c1 (stereo partly drawn) [Example 330, N-(3-((3R)-5-amino-2-fluoro-3,6,6-trimethyl-1,1-dioxido-3,6-dihydro-2H-1,4-thiazin-3-yl)-4-fluorophenyl)-5-(difluoromethoxy)-3-methyl-2-pyridinecarboxamide]	
3.69	5.98	5.94			CC1(C)C(N)=N[C@](C)(c2cc(Oc3nccc4ccccc34)ccc2F)CS1(=O)=O [Example 294, (5R)-5-(2-fluoro-5-(1-isoquinolinyloxy)phenyl)-2,2,5-trimethyl-5,6-dihydro-2H-1,4-thiazin-3-amine 1,1-dioxide]	
3.98	5.64		< 4.81		CC1(C)C(N)=N[C@](C)(c2cc(C(=O)Nc3ccc(C#N)cc3O)ccc2F)CS1(=O)=O [Example 173, (R)-3-(5-amino-3,6,6-trimethyl-1,1-dioxido-3,6-dihydro-2H-1,4-thiazin-3-yl)-N-(4-cyano-2-hydroxyphenyl)-4-fluorobenzamide]	
4.23				5.74	CC1(C)C(N)=N[C@](C)(c2cc(Oc3ccc(C#N)cc3)ccc2F)CS1(=O)=O [Example 96, (R)-4-(3-(5-amino-3,6,6-trimethyl-1,1-dioxido-3,6-dihydro-2H-1,4-thiazin-3-yl)-4-fluorophenoxy)benzonitrile]	pIC50 ([2]; Aβ40, 24 h incubation): 5.22
3.80				7.87	COc1cnc2c(Nc3ccc(F)c([C@]4(C)CS(=O)(=O)C5(CC5)C(N)=N4)c3)nccc2c1 [Example 86, (R)-8-Amino-6-(2-fluoro-5-((3-methoxy-1,7-naphthyridin-8-yl)amino)phenyl)-6-methyl-4-thia-7-azaspiro[2.5]oct-7-ene 4,4-dioxide]	pIC50 ([2]; Aβ40, 24 h incubation): 8.09
4.55	8.72		8.29		C[C@@]1(c2cc(Nc3nccc4cc(C#N)cnc34)ccc2F)CS(=O)(=O)C2(CCC2)C(N)=N1 [Example 117, (R)-8-((3-(9-amino-7-methyl-5,5-dioxido-5-thia-8-azaspiro[3.5]non-8-en-7-yl)-4-fluorophenyl)amino)-1,7-naphthyridine-3-carbonitrile]	
4.29	6.08	6.17			CC1(C)C(N)=N[C@](C)(c2cc(Oc3nccc(-c4ccccc4)c3C#N)ccc2F)CS1(=O)=O [Example 293, 2-(3-((3R)-5-amino-3,6,6-trimethyl-1,1-dioxido-3,6-dihydro-2H-1,4-thiazin-3-yl)-4-fluorophenoxy)-4-phenyl-3-pyridinecarbonitrile]	
